Test results reported in ChEMBL document CHEMBL5360649, “Potential Broad-Spectrum Antimicrobial, Wound Healing, and Disinfectant Cationic Peptide Crafted from Snake Venom” (J Med Chem, 2023).
Activity calls are given as the source filed them. No cut-off for these calls is given here.

How the values were obtained:
[1] = species: Rattus norvegicus; assay: Induction of wound healing in surgically-induced Albino Wistar rat wound model assessed as reduction in inflammatory activity at 10 uM measured after 11 days by H&E staining based analysis; assay type: functional; conditions: time 11.0 day
[2] = system: RAW264.7; assay: Antiinflammatory activity in mouse RAW264.7 cells assessed as increase in TGF-beta1 expression at 10 uM incubated for 24 hrs by radioimmunoprecipitation based dot-plot analysis; assay type: functional, cell-based
[3] = system: Staphylococcus aureus; assay: Antibacterial activity against methicillin resistant Staphylococcus aureus assessed as inhibition of bacterial growth at 1.25 to 40 uM by microtiter plate reader analysis; assay type: functional, organism-based; conditions: dose 1.25-40 µM, time 0.5-8.5 hrs, TDE = time-dependent effect
[4] = system: Klebsiella pneumoniae; assay: Antibiofilm activity against Klebsiella pneumoniae assessed as biofilm disintegration at 0.5 to 1 times of MIC incubated for 24 hrs by Congo red dye based fluorescence analysis; assay type: functional, organism-based
[5] = system: Cell membrane; assay: Induction of cytoplasmic membrane depolarization in Pseudomonas aeruginosa assessed as increase in fluorescence intensity at 0.5 to 1 times of MIC by DiSC3-5 dye based fluorescence method; assay type: subcellular
[6] = system: Pseudomonas aeruginosa; assay: Bactericidal activity against patient-derived Pseudomonas aeruginosa assessed as reduction in bacterial growth incubated for 24 hrs by Mueller Hinton Agar based plate analysis; assay type: functional
[7] = species: Rattus norvegicus; assay: Induction of wound healing in surgically-induced Albino Wistar rat wound model assessed as reduction in inflammatory signs at 10 uM measured after 11 days by H&E staining based analysis; assay type: functional; conditions: time 11.0 day
[8] = system: Klebsiella pneumoniae; assay: Antibiofilm activity against Klebsiella pneumoniae in the presence of Na+; assay type: functional, organism-based
[9] = system: Klebsiella pneumoniae; assay: Antibacterial activity against carbapenem resistant Klebsiella pneumoniae ATCC BAA-1705 assessed as inhibition of bacterial growth incubated for 8 hrs at 1.25 to 40 uM by microtiter plate reader analysis; assay type: functional, organism-based; conditions: dose 1.25-40 µM
[10] = system: Cell membrane; assay: Induction of cytoplasmic membrane depolarization in Escherichia coli assessed as increase in fluorescence intensity at 0.5 to 1 times of MIC by DiSC3-5 dye based fluorescence method; assay type: subcellular
[11] = system: Staphylococcus aureus; assay: Induction of morphological changes in methicillin resistant Staphylococcus aureus assessed as decrease in legible cells at MIC concentration incubated for 6 hrs by AFM analysis; assay type: functional, organism-based
[12] = system: Pseudomonas aeruginosa; assay: Induction of morphological changes in Pseudomonas aeruginosa assessed as cellular destruction at MIC concentration incubated for 6 hrs by SEM analysis; assay type: functional, organism-based
[13] = system: Staphylococcus aureus; assay: Antibiofilm activity against methicillin-resistant Staphylococcus aureus in the presence of Na+; assay type: functional, organism-based
[14] = system: Cell membrane; assay: Induction of outer membrane permeabilization in Klebsiella pneumoniae at 0.5 to 1 times of MIC incubated for 5 to 20 mins by fluorescence based NPN uptake assay; assay type: subcellular; conditions: time 5-20 min
[15] = species: Rattus norvegicus; assay: Induction of wound healing in surgically-induced Albino Wistar rat wound model inoculated with methicillin-resistant Staphylococcus aureus assessed as sebaceous gland formation at 10 uM measured after 11 days by H&E staining based analysis; assay type: functional; conditions: time 11.0 day
[16] = system: Pseudomonas aeruginosa; assay: Induction of morphological changes in Pseudomonas aeruginosa at MIC concentration incubated for 6 hrs by AFM analysis; assay type: functional, organism-based
[17] = system: Escherichia coli; assay: Antibiofilm activity against Escherichia coli in the presence of Na+; assay type: functional, organism-based
[18] = system: NMDF; assay: Induction of cell migration in NMDF cells at 10 uM incubated for 24 hrs by wound healing scratch/mirgation assay; assay type: functional, cell-based; conditions: Mus musculus
[19] = system: Escherichia coli; assay: Antibacterial activity against Escherichia coli assessed as cell division block by measuring cellular elongation at 0.5 to 1 times of MIC incubated for 30 mins by SYTO9/PI staining based fluorescence microscopic analysis; assay type: functional, organism-based
[20] = system: Escherichia coli; assay: Antibacterial activity against Escherichia coli assessed as inhibition of bacterial growth incubated for 0.5 to 8.5 hrs by microtiter plate reader analysis; assay type: functional, organism-based; conditions: dose 1.25-40 µM, time 0.5-8.5 hrs
[21] = system: U-937; assay: Immunomodulatory activity in human U-937 cells assessed as effect on IL-6 expression level at 5 to 10 uM incubated for 24 hrs by radioimmunoprecipitation based dot-plot analysis; assay type: functional, cell-based; conditions: dose 5-10 µM
[22] = system: Staphylococcus aureus; assay: Antibacterial activity against patient-derived methicillin-resistant Staphylococcus aureus assessed as inhibition of bacterial growth at 25 to 100 uM incubated overnight by spotting assay; assay type: functional, organism-based; conditions: dose 25-100 µM
[23] = system: Klebsiella pneumoniae; assay: Bactericidal activity against Klebsiella pneumoniae ATCC BAA-1705 assessed as reduction in bacterial growth incubated for 24 hrs by Mueller Hinton Agar based plate analysis; assay type: functional
[24] = system: Pseudomonas aeruginosa; assay: Antibacterial activity against Pseudomonas aeruginosa assessed as cell division block by measuring bacterial filamentation at 0.5 to 1 times of MIC incubated for 30 mins by SYTO9/PI staining based fluorescence microscopic analysis; assay type: functional, organism-based
[25] = system: Cell membrane; assay: Induction of cytoplasmic membrane depolarization in methicillin-resistant Staphylococcus aureus assessed as increase in fluorescence intensity at 0.5 to 1 times of MIC by DiSC3-5 dye based fluorescence method; assay type: subcellular
[26] = system: Klebsiella pneumoniae; assay: Antibacterial activity against Klebsiella pneumoniae ATCC BAA-1705 assessed as inhibition of bacterial growth incubated for 24 hrs by CLSI protocol based microdilution method; assay type: functional
[27] = system: Pseudomonas aeruginosa; assay: Induction of morphological changes in Pseudomonas aeruginosa at MIC concentration incubated for 6 hrs by SEM analysis; assay type: functional, organism-based
[28] = system: Cell membrane; assay: Induction of outer membrane permeabilization in Pseudomonas aeruginosa at 0.5 to 1 times of MIC incubated for 5 to 20 mins by fluorescence based NPN uptake assay; assay type: subcellular; conditions: time 5-20 min
[29] = system: Escherichia coli; assay: Induction of morphological changes in Escherichia coli at MIC concentration incubated for 6 hrs by SEM analysis; assay type: functional, organism-based
[30] = Cytotoxicity against human MCF7 cells assessed as cell viability at 25 uM incubated for 24 hrs by MTT assay relative to control; assay type: toxicity, cell-based; conditions: read-out: Activity
[31] = system: Staphylococcus aureus; assay: Antibacterial activity against patient-derived methicillin-resistant Staphylococcus aureus assessed as inhibition of bacterial growth incubated for 24 hrs by CLSI protocol based microdilution method; assay type: functional
[32] = system: Pseudomonas aeruginosa; assay: Antibiofilm activity against Pseudomonas aeruginosa in the presence of Cl-; assay type: functional, organism-based
[33] = species: Rattus norvegicus; assay: Induction of wound healing in surgically-induced Albino Wistar rat wound model assessed as proper formation of sebaceous gland at 10 uM measured after 11 days by H&E staining based analysis; assay type: functional; conditions: time 11.0 day
[34] = system: Erythrocyte; assay: Cytotoxicity against human RBC assessed as less damage to cells at 12.5 to 25 uM by SEM analysis; assay type: toxicity, cell-based; conditions: dose 12.5-25 µM
[35] = system: Staphylococcus aureus; assay: Antibiofilm activity against methicillin-resistant Staphylococcus aureus in the presence of Cl-; assay type: functional, organism-based
[36] = system: Cell membrane; assay: Induction of inner membrane permeabilization in methicillin-resistant Staphylococcus aureus assessed as increase in fluorescence at 0.5 to 1 times of MIC incubated for 60 mins by PI staining based fluorescence analysis; assay type: subcellular
[37] = system: Staphylococcus aureus; assay: Induction of morphological changes in methicillin-resistant Staphylococcus aureus assessed as abnormal cell shrinkage at MIC concentration incubated for 60 mins by SEM analysis; assay type: functional, organism-based
[38] = system: Staphylococcus aureus; assay: Antibiofilm activity in methicillin-resistant Staphylococcus aureus assessed as biofilm clearance incubated for 24 hrs by Congo red dye based fluorescence analysis; assay type: functional, organism-based
[39] = system: Klebsiella pneumoniae; assay: Antibiofilm activity against Klebsiella pneumoniae in the presence of Cl-; assay type: functional, organism-based
[40] = system: Klebsiella pneumoniae; assay: Induction of morphological changes in carbapenem resistant Klebsiella pneumoniae ATCC BAA-1705 assessed as cellular destruction at MIC concentration incubated for 6 hrs by AFM analysis; assay type: functional, organism-based

Question: With H-FLPIIKWVKKFFWRWR-OH as the substance, how does the Activity [1] read?
Answer: Active

Question: What about the Activity [2] of the same substance?
Answer: Active

Question: What about the Activity [3] of the same substance?
Answer: Tde

Question: What about the Activity [4] of the same substance?
Answer: Active

Question: And the Activity [5]?
Answer: Active

Question: What about the MBC [6] of the same substance?
Answer: 6 µM

Question: What about the Activity [7] of the same substance?
Answer: Active

Question: And the Activity [8]?
Answer: Active

Question: And the Activity [9]?
Answer: Active

Question: What about the Activity [10] of the same substance?
Answer: Active

Question: What about the Activity [11] of the same substance?
Answer: Active

Question: And the Activity [12]?
Answer: Active

Question: What about the Activity [13] of the same substance?
Answer: Active

Question: And the Activity [14]?
Answer: Active

Question: And the Activity [15]?
Answer: Active

Question: And the Activity [16]?
Answer: Active

Question: What about the Activity [17] of the same substance?
Answer: Active

Question: What about the Activity [18] of the same substance?
Answer: Active

Question: And the Activity [19]?
Answer: Active

Question: And the Activity [20]?
Answer: Dose-Dependent Effect

Question: What about the Activity [21] of the same substance?
Answer: Active

Question: And the Activity [22]?
Answer: Active

Question: What about the MBC [23] of the same substance?
Answer: 11 µM

Question: And the Activity [24]?
Answer: Active

Question: What about the Activity [25] of the same substance?
Answer: Active

Question: And the MIC [26]?
Answer: 8 µM

Question: What about the Activity [27] of the same substance?
Answer: Active

Question: What about the Activity [28] of the same substance?
Answer: Active

Question: What about the Activity [29] of the same substance?
Answer: Active

Question: What about the viability at 24 h, 25 µM [30] of the same substance?
Answer: 63.8%

Question: And the MIC [31]?
Answer: 6 µM

Question: And the Activity [32]?
Answer: Active

Question: What about the Activity [33] of the same substance?
Answer: Active

Question: And the Activity [34]?
Answer: Non-Toxic

Question: And the Activity [35]?
Answer: Active

Question: What about the Activity [36] of the same substance?
Answer: Active

Question: And the Activity [37]?
Answer: Active

Question: What about the Activity [38] of the same substance?
Answer: Dose-Dependent Effect

Question: What about the Activity [39] of the same substance?
Answer: Active

Question: What about the Activity [40] of the same substance?
Answer: Active
